Laboratory results taken from the supplement of paper PMC11061612.

What was measured:
[1] = test system: HCC1395 (Breast Carcinoma); assay: Bliss excess, mean over the matrix (fraction); higher = more synergy
How it was run: (§1)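 Cell lines grown in DMEM/F12 or RPMI with 10% FBS were plated in 1536-well plates and held 24 hours at 37°C, 5% CO2 before 72 hours of exposure to two-drug dose matrices, with DMSO typically at 0.2%. CellTiter-Glo 2.0 luminescence gave viability, which was converted to inhibition. Vehicle wells were set to 0 and blank wells to 1. Combination Emax is the second-highest inhibition in the matrix, and Bliss excess is the observed combination effect minus the expected EA + EB − EA·EB, where EA and EB are the single-agent effects.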

[2] = test system: HT55 (Colorectal Carcinoma); assay: as above
How it was run: as §1

HCC70 (Breast Carcinoma) = assay: as above
How it was run: as §1

[3] = test system: NCI-H441 (Lung Adenocarcinoma); assay: as above
How it was run: as §1

[4] = test system: A253 (Head and Neck Carcinoma); assay: as above
How it was run: as §1

[5] = test system: UACC-812 (Breast Carcinoma); assay: as above
How it was run: as §1

[6] = test system: NCI-H1703 (Squamous Cell Lung Carcinoma); assay: as above
How it was run: as §1

COLO-792 (Melanoma) = assay: as above
How it was run: as §1

[7] = test system: TE-10 (Esophageal Squamous Cell Carcinoma); assay: as above
How it was run: as §1

[8] = test system: TE-10 (Esophageal Squamous Cell Carcinoma); assay: combination Emax (second highest fraction inhibited in the dose matrix, 72 h); higher = more inhibition; extreme values may be limits of the assay
How it was run: as §1

[9] = test system: NCI-H716 (Colorectal Carcinoma); assay: Bliss excess, mean over the matrix (fraction); higher = more synergy
How it was run: as §1

[10] = test system: GA-10 (Burkitt's Lymphoma); assay: as above
How it was run: as §1

MKN1 (Gastric Carcinoma) [11] = assay: as above
How it was run: as §1

[12] = test system: NCI-H841 (Small Cell Lung Carcinoma); assay: as above
How it was run: as §1

MKN1 (Gastric Carcinoma) [13] = assay: combination Emax (second highest fraction inhibited in the dose matrix, 72 h); higher = more inhibition; extreme values may be limits of the assay
How it was run: as §1

[14] = test system: NCI-H841 (Small Cell Lung Carcinoma); assay: as above
How it was run: as §1
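For Bliss excess, mean over the matrix in this document: after 72 h of two-drug dosing.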

| SMILES | Bliss excess [1] | Bliss excess [2] | Bliss excess (HCC70 (Breast Carcinoma)) | Bliss excess [3] | Bliss excess [4] | Bliss excess [5] | Bliss excess [6] | Bliss excess (COLO-792 (Melanoma)) | Bliss excess [7] | combination Emax [8] | Bliss excess [9] | Bliss excess [10] | Bliss excess (MKN1 (Gastric Carcinoma) [11]) | Bliss excess [12] | combination Emax (MKN1 (Gastric Carcinoma) [13]) | combination Emax [14] |
| --- | --- | --- | --- | --- | --- | --- | --- | --- | --- | --- | --- | --- | --- | --- | --- | --- |
| CCc1c2c(nc3ccc(O)cc13)-c1cc3c(c(=O)n1C2)COC(=O)[C@]3(O)CC [SN-38] + O=C(c1cc(Cc2n[nH]c(=O)c3ccccc23)ccc1F)N1CCN(C(=O)C2CC2)CC1 [Olaparib] (first compound max 0.3 µM, 7x7, partner max 10 µM) | 0.0315 | 0.0966 | 0.0458 | 0.0449 | 0.0223 | 0.0333 | 0.0271 | 0.0356 | 0.0939 | 0.752 | – | – | – | – | – | – |
| CN(CCO)CC[C@H](CSc1ccccc1)Nc1ccc(S(=O)(=O)NC(=O)c2ccc(N3CCC([C@@H](O)c4ccccc4-c4ccc(Cl)cc4)CC3)cc2)cc1S(=O)(=O)C(F)(F)F [AZD4320] + CN(C)CCCOc1ccc(-c2ccc3ncc4c(c3c2)n(C2CCOCC2)c(=O)n4C)cn1 [AZD0156] (first compound max 1 µM, 7x7, partner max 1 µM) | -0.0269 | -0.0158 | -0.0321 | -0.022 | 0.0114 | -0.0283 | -0.0127 | – | -0.0208 | 0.281 | -0.0214 | 0.0026 | – | – | – | – |
| Cc1c2c(nn1C)CSCc1cc(n(C)n1)CSc1cc(c3ccccc3c1)OCCCc1c(C(=O)O)n(C)c3c-2c(Cl)ccc13 [AZD5991] + CN(C)CCCOc1ccc(-c2ccc3ncc4c(c3c2)n(C2CCOCC2)c(=O)n4C)cn1 [AZD0156] (first compound max 1 µM, 7x7, partner max 1 µM) | – | 0.0318 | -0.0028 | 0.0031 | 0.0058 | 0.0465 | -0.0272 | 0.0191 | -0.055 | 0.84 | 0.0233 | -0.0564 | – | – | – | – |
| Cc1c2c(nn1C)CSCc1cc(n(C)n1)CSc1cc(c3ccccc3c1)OCCCc1c(C(=O)O)n(C)c3c-2c(Cl)ccc13 [AZD5991] + C=CCn1c(=O)c2cnc(Nc3ccc(N4CCN(C)CC4)cc3)nc2n1-c1cccc(C(C)(C)O)n1 [AZD1775] (first compound max 1 µM, partner max 1 µM) | -0.0172 | 0.0215 | 0.0278 | 0.0171 | 0.0398 | -0.0343 | -0.0214 | 0.0348 | -0.0235 | 0.942 | – | -0.053 | – | – | – | – |
| Cn1cnc2c(F)c(Nc3ccc(Br)cc3Cl)c(C(=O)NOCCO)cc21 [Selumetinib] + C=CCn1c(=O)c2cnc(Nc3ccc(N4CCN(C)CC4)cc3)nc2n1-c1cccc(C(C)(C)O)n1 [AZD1775] (first compound max 10 µM, partner max 1 µM) | -0.0333 | -0.0422 | 0.0361 | 0.0069 | -0.0181 | -0.0425 | -0.0612 | 0.0092 | – | – | -0.0992 | -0.0321 | -0.0326 | -0.0536 | 0.782 | 0.217 |
| COc1nnc2ccc(N3CCC(c4ccc(OCCN5CCN(C)C(=O)[C@H]5C)cc4)CC3)nn12 [AZD5153] + CC1(C)CCC(CN2CCN(c3ccc(C(=O)NS(=O)(=O)c4ccc(NCC5CCOCC5)c([N+](=O)[O-])c4)c(Oc4cnc5[nH]ccc5c4)c3)CC2)=C(c2ccc(Cl)cc2)C1 [Venetoclax] (first compound max 1 µM, 7x7, partner max 1 µM) | -0.0241 | -0.0387 | -0.0013 | -0.0137 | -0.0724 | -0.0947 | -0.0404 | -0.0162 | – | – | -0.0035 | -0.0497 | -0.0062 | -0.0317 | 0.57 | 0.317 |
| Cn1cnc2c(F)c(Nc3ccc(Br)cc3Cl)c(C(=O)NOCCO)cc21 [Selumetinib] + C[C@@H]1COCCN1C2=NC(=NC(=C2)C3(CC3)[S@](=N)(=O)C)C4=C5C=CNC5=NC=C4 [AZD6738] (first compound max 10 µM, 7x7, partner max 10 µM) | -0.0128 | 0.004 | 0.0731 | 0.0498 | -0.0229 | -0.0397 | -0.0318 | 0.0362 | – | – | -0.0341 | -0.0046 | 0.0183 | -0.0212 | 0.782 | 0.389 |
| Cn1cnc2c(F)c(Nc3ccc(Br)cc3Cl)c(C(=O)NOCCO)cc21 [Selumetinib] + CCN(CCO)CCCOc1ccc2c(Nc3cc(CC(=O)Nc4cccc(F)c4)[nH]n3)ncnc2c1 [AZD2811] (first compound max 10 µM, 7x7, partner max 1 µM) | -0.008 | 0.0032 | 0.0138 | -0.0565 | -0.018 | -0.049 | -0.0167 | -0.0532 | – | – | 0.044 | -0.0559 | 0.002 | -0.0341 | 0.538 | 0.332 |
